The values below come from US9615577B2, “Herbicidally active cyclic dione compounds, or derivatives therefor, substituted by a phenyl which has an alkynyl-containing substituent” (Syngenta Limited, priority 2012, dated 2017).

Common to all, as to format: in vivo
The subject of test [1] is Alopecurus myosuroides (ALOMY). The test is described as follows: Test 1A glasshouse assay for herbicidal activity, post-emergence. To be noted: 312 h, evaluated after 13 days, read-out: percentage phytotoxicity ALOMY. A digest of the protocol:
(§1)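 Test plants grew from seed in standard soil under controlled glasshouse conditions (24/16 °C, 14 h light, 65% humidity) and received an aqueous acetone (50:50) spray with 0.5% Tween 20, either one day after sowing or after eight days. Damage was rated visually as percent phytotoxicity 13 days later.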

Test [2] concerns Amaranthus retroflexus (AMARE). The test is described as above. The following applies: 312 h, evaluated after 13 days, read-out: percentage phytotoxicity AMARE. A digest of the protocol:
as §1

Test [3] concerns Echinochloa crus-galli (ECHCG). Described as above. To be noted: 312 h, evaluated after 13 days, read-out: percentage phytotoxicity ECHCG. In outline: as §1
Test [4] concerns Setaria faberi (SETFA). The description is as above. To be noted: 312 h, evaluated after 13 days, read-out: percentage phytotoxicity SETFA. A digest of the protocol:
as §1

In test [5] the test system is Beta vulgaris (BEAVA, sugar beet). The test is described as follows: Test 1B glasshouse assay for herbicidal activity, pre-emergence. The following applies: 480 h, 20 DAA, read-out: percentage phytotoxicity BEAVA. The protocol: (§2) Seeds of a variety of monocotyledonous and dicotyledonous test plants are sown in standard soil in pots. The plants are cultivated for one day (for pre-emergence) or for about 12 days (range=10-13 days) (for post-emergence) under controlled conditions in a glasshouse (warm climate species at 24/18° C., cool climate species at 20/16° C., both at day/night; 16 hours light; 65% humidity).
(§3) An “instant formulation”, known as the “IF50”, containing 50 g/liter (i.e. 5% w/v) of the “technical” (i.e. unformulated) active ingredient is prepared by dissolving the active ingredient in a mixture of organic solvents and emulsifier, details of which are provided in the Table below. This IF50 is then mixed with a small, variable amount of acetone to aid dissolution, before addition of a 0.2% v/v aqueous solution of the adjuvant X-77 (which is a mixture of alkyl aryl polyoxyethylene glycols and free fatty acids in isopropanol, CAS Registry number 11097-66-8), as the aqueous diluent, to form an aqueous spray solution which contains a predetermined concentration of the active ingredient (which varies depending on the application rate of the active ingredient to the plants) and 0.2% v/v of the adjuvant X-77. This aqueous spray solution is then sprayed onto the plants, after one day's cultivation (for pre-emergence) or after about 12 days' cultivation (for post-emergence).
(§4) The test plants are then grown on, in a glasshouse (greenhouse) under controlled conditions (at either 24/18° C. or 20/16° C. (day/night) as mentioned above; 16 hours light; 65% humidity) and are watered twice daily. Either 15 days after application of the herbicide (15 DAA) (for post-emergence), or 20 days after application of the herbicide (20 DAA) (for pre-emergence), the test plants are evaluated visually, and an assessed percentage phytotoxicity score is given for each herbicidal application on each plant species (where 100%=total damage to plant; 0%=no damage to plant).
(§5) Cool climate crop plants: Triticum aestivum (TRZAW, winter wheat), Brassica napus (BRSNN, rape, also called oilseed rape or rapeseed), Beta vulgaris (BEAVA, sugar beet).

In test [6] the test system is Brassica napus (BRSNN, rape). The test is described as above. To be noted: 480 h, 20 DAA, read-out: percentage phytotoxicity BRSNN. The method, then:
as §2, §3, §4, §5

The subject of test [7] is Triticum aestivum (TRZAW, winter wheat). Described as above. To be noted: 480 h, 20 DAA, read-out: percentage phytotoxicity TRZAW. The protocol: as §2, §3, §4, §5
Test [8] concerns Alopecurus myosuroides (ALOMY). The description is as above. To be noted: 480 h, 20 DAA, read-out: percentage phytotoxicity ALOMY. The method, then: as §2, §3, §4
(§6) Cool climate (“cool season”) grassy monocotyledonous weeds: Alopecurus myosuroides (ALOMY), Avena fatua (AVEFA), Lolium perenne (LOLPE).

In a further test the test system is Avena fatua (AVEFA). The description is as above. The following applies: 480 h, 20 DAA, read-out: percentage phytotoxicity AVEFA. The method, then: as §2, §3, §4, §6
Another test deals with Lolium perenne (LOLPE). Described as above. The following applies: 480 h, 20 DAA, read-out: percentage phytotoxicity LOLPE. The method, then:
as §2, §3, §4, §6

In test [9] the test system is Echinochloa crus-galli (ECHCG). The description is as above. The following applies: 480 h, 20 DAA, read-out: percentage phytotoxicity ECHCG. The protocol:
as §2, §3, §4
(§7) Warm climate (“warm season”) grassy monocotyledonous weeds: Setaria faberi (SETFA), SORVU (Sorghum bicolor (L.) Moench ssp. Bicolor, or Sorghum vulgare Pers.), Digitaria sanguinalis (DIGSA), Echinochloa crus-galli (ECHCG), and Brachiaria plantaginea (BRAPL).

Test [10] relates to Digitaria sanguinalis (DIGSA). The test is described as follows: Test 1B glasshouse assay for herbicidal activity, post-emergence. The following applies: 360 h; for pest or weed control at 30 g/ha: 30 g/ha application rate; for pest or weed control at 125 g/ha: 125 g/ha application rate. The protocol: as §2, §3, §4, §7
Test [11] relates to SORVU (Sorghum bicolor (L.) Moench ssp. Bicolor, or Sorghum vulgare Pers.). Described as above. To be noted: 360 h; for pest or weed control at 30 g/ha: 30 g/ha application rate; for pest or weed control at 125 g/ha: 125 g/ha application rate. The method, then: as §2, §3, §4, §7
Test [12] has as its system Setaria faberi (SETFA). The test is described as above. The following applies: 360 h; for pest or weed control at 30 g/ha: 30 g/ha application rate; for pest or weed control at 125 g/ha: 125 g/ha application rate. The method, then: as §2, §3, §4, §7
In test [13] the test system is Echinochloa crus-galli (ECHCG). Described as above. The following applies: Echinochloa crus-galli; for pest or weed control at 30 g/ha: 30 g/ha application rate; for pest or weed control at 125 g/ha: 125 g/ha application rate. The protocol:
as §2, §3, §4, §7
Note: The herbicidal activity data (e.g. post-emergence) shown above in Biological Example 1B for Comparator compounds X-9 and X-10 is thought likely to have been measured some years ago, probably using a variant of the above-described test method. Also, for the post-emergence activity of X-9 and X-10 it is not currently known exactly how many days after application of the herbicide the phytotoxicity on the plants was measured.

As to `CC#Cc1ccc(C2C(=O)C(C)(C)OC(C)(C)C2=O)c(C)c1` [Compound A-1], the pest or weed control at 250 g/ha in test [1] worked out at 90%; in [2], 10%; in [3], 100%; in the test with Setaria faberi (SETFA) [4], 70%. The plant injury at 500 g/ha in test [5] (500 g/ha) came to 10%; in test [6] (500 g/ha) it was 60%; in [7] (500 g/ha) it was 40%. For the same compound, the pest or weed control at 500 g/ha was 70% in test [8] (500 g/ha), 10% in the test on Avena fatua (AVEFA) (500 g/ha), 100% in the test on Lolium perenne (LOLPE) (500 g/ha) and 100% in test [9] (500 g/ha). Also, the pest or weed control at 60 g/ha in [10] (60 g/ha application rate) turned out to be 80%; in test [11] (60 g/ha application rate), 0%; with Setaria faberi (SETFA) [12] (60 g/ha application rate) it was 70%; in [13] (60 g/ha application rate) it was 90%.
Regarding `CC#Cc1cc(Cl)c(C2C(=O)C3CCC(C3)C2=O)c(OC)c1` (stereo not shown) [Compound A-12], the pest or weed control at 62.5 g/ha in test [1] (62.5 g/ha) is 80%; in test [2] (62.5 g/ha), 0%; in [3] (62.5 g/ha), 100%; in the test on Setaria faberi (SETFA) [4] (62.5 g/ha) it was 100%. The pest or weed control at 250 g/ha in test [1] is 90 to 100%; in test [2], 0 to 10%; in test [3], 100%; in the test on Setaria faberi (SETFA) [4], 100%; in test [8], 60%; in the test with Avena fatua (AVEFA), 50%. Besides, the pest or weed control at 250 g/ha (with Lolium perenne (LOLPE); in test [9]) was 100% each time. For the same compound, the plant injury at 250 g/ha in [5] came to 10%; in [6] it was 20%; in test [7], 30%. The pest or weed control at 30 g/ha in test [10] was 100%; in test [11], 80%; in the test with Setaria faberi (SETFA) [12], 70%; in test [13] it was 90%. Also, the pest or weed control at 125 g/ha was determined as 100% in [10], 100% in test [11], 80% with Setaria faberi (SETFA) [12] and 100% in test [13].
`CC#Cc1cc(C)c(C2C(=O)CC(CC3CCOCC3)CC2=O)c(C)c1` (stereo not shown) [Compound A-9]: the pest or weed control at 250 g/ha turned out to be 100% in test [1], 30% in test [2], 100% in test [3] and 90% in the test on Setaria faberi (SETFA) [4]. In addition, the figures for the plant injury at 125 g/ha in [5] (125 g/ha), in test [6] (125 g/ha) and in test [7] (125 g/ha) were 20%, 80% and 20%, respectively. In addition, the pest or weed control at 125 g/ha in test [8] (125 g/ha) turned out to be 80%; in the test on Avena fatua (AVEFA) (125 g/ha), 80%; in the test with Lolium perenne (LOLPE) (125 g/ha), 100%; in [9] (125 g/ha), 90%. Besides, the pest or weed control at 30 g/ha in [10] amounted to 100%; in [11], 80%; with Setaria faberi (SETFA) [12] it was 90%; in [13], 100%.
`CC#Cc1cc(Cl)c(C2C(=O)C3CCC(C3)C2=O)c(OCC)c1` (stereo not shown) [Compound A-16]: the pest or weed control at 30 g/ha came to 90% in test [1] (30 g/ha); 30% in test [2] (30 g/ha); 100% in test [3] (30 g/ha); 100% in the test on Setaria faberi (SETFA) [4] (30 g/ha); 80% in [10]; 80% in [11]. Moreover, the pest or weed control at 30 g/ha (in the test with Setaria faberi (SETFA) [12]; in test [13]) was 80% in each case. The pest or weed control at 250 g/ha in test [1] came out at 100%; in [2], 70%; in [3] it was 100%; with Setaria faberi (SETFA) [4], 100%; in test [8] it was 50%; in the test with Avena fatua (AVEFA) it was 40%. Further, the pest or weed control at 250 g/ha with Lolium perenne (LOLPE) turned out to be 70%; in [9], 80%. Moreover, the plant injury at 250 g/ha in test [5], in [6] and in test [7] was 0% throughout. The pest or weed control at 125 g/ha (in [10]; in [11]; in the test on Setaria faberi (SETFA) [12]; in test [13]) was 100% each time.
